Experiments:
Hsp90 = target: T1, Hsp90 (Homo sapiens, UniProt P07900); assay: Fluorescence Polarization (FP) binding, GM-BODIPY displacement from Hsp90; conditions: GM-BODIPY tracer, 4° C. for 4 hours
T1 construct: purchased Stressgen SPP-776
How it was run: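 Hsp90 (125 nM) was mixed with 100 nM GM-BODIPY tracer and serially diluted compounds in HEPES-K buffer (pH 7.3, KCl, MgCl2, Na2MoO4, 0.01% NP40, fresh bovine gamma globulin and 2 mM DTT). Plates were shaken 4 h at 4 °C before FP (mP) reading. IC50 is the concentration displacing 50% of tracer, from nonlinear least-squares fits of triplicate means.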

[1] = system: NCI-H460 non-small cell lung carcinoma; assay: Cytotoxicity assay, sulphorodamine B test, NCI-H460; assay type: cell-based; conditions: for IC50: Homo sapiens, NCI-H460, 72 h, sulphorodamine B
How it was run: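 NCI-H460 cells grown in RPMI 1640 with 10% FBS, seeded at ~10% confluence and left 24 h before graded compound concentrations were added for 72 h at 37 °C. TCA-fixed cells stained with 0.4% sulphorodamine B; OD 540 nm vs control cultures gave IC50 for 50% inhibition of survival.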

A431 epidermoid = assay: Sulphorodamine B test at single concentration, A431; assay type: cell-based; conditions: Homo sapiens, A-431; 500 nM, 72 h
Method: (§1) The antiproliferative activity of novel Hsp90 inhibitors was also evaluated on various cancerous cell lines by means of the sulphorodamine B test (i.e., NCI-H460 non-small cell lung carcinoma, A431 epidermoid, A2780 ovarian, MDA-MB436 triple-negative breast, U87MG glioblastoma, A498 renal, HCT116 colon, MeWo melanoma, MiaPaCa2 pancreas, HeLa cervix uteri, NB4 promyelocytic leukemia). NCI-H460, A431, MDA-MB436, A2780, A498, HeLa, NB4 tumour cells were grown in RPMI 1640 containing 10% fetal bovine serum (i.e., FBS from GIBCO), L-glutamine, and 50 μg/ml gentamycin sulfate.
(§2) All cell lines were maintained in a 37° C. incubator with saturated humidity and an atmosphere containing 95% air and 5% CO2, and were sub-cultured every 2-3 days. Tumour cells were seeded in 96-well tissue culture plates at approximately 10% confluence and were allowed to attach and recover for 24 h.
(§3) Varying concentrations of the drugs were then added to each well to calculate their IC50 value (the concentration which inhibits the 50% of cell survival). The plates were incubated at 37° C. for 72 h. At the end of the treatment, the plates were washed by remotion of the supernatant and addition of PBS 3 times. 200 μl PBS and 50 μl of cold 80% trichloroacetic acid (TCA) were added. The plates were incubated on ice for at least 1 h. TCA was removed, the plates were washed 3 times by immersion in distilled-water and dried on paper and at 40° C. for […]. Then 200 μl of 0.4% sulphorodamine B in 1% acetic acid were added. The plates were incubated at room temperature for 30 min. Sulphorodamine B was removed, the plates were washed by immersion in 1% acetic acid for 3 times, then they were dried on paper and at 40° C. for 5 min. Then, 200 μl Tris 10 mM were added, the plates were kept under stirring for 20 min. The cell survival was determined as optical density by a Multiskan […] at 540 nm. The amount of cells killed was calculated as the percentage decrease in sulphorodamine B binding compared with control cultures.
(§4) The other cell lines were screened against one single concentration of the various inhibitors (i.e., 500 nM), all experiments being made in octuplicate, following the protocol described at example 35. Since NB4 cell line was grown in suspension, a further step of centrifugation (i.e., 1600 g for 10 min) was added after the 72 hour incubation period.

A2780 ovarian = assay: Sulphorodamine B test at single concentration, A2780; assay type: cell-based; conditions: Homo sapiens, 500 nM, 72 h
Method: as §1, §2, §3, §4

[2] = system: MDA-MB436 triple-negative breast; assay: Sulphorodamine B test at single concentration, MDA-MB436; assay type: cell-based; conditions: Homo sapiens, MDA-MB-436; 500 nM, 72 h
Method: as §1, §2, §3, §4

U87MG glioblastoma = assay: Sulphorodamine B test at single concentration, U87MG; assay type: cell-based; conditions: Homo sapiens, U-87 MG; 500 nM, 72 h
Method: as §1
(§5) MeWo and U87-MG cells were cultured in Eagle's Minimum Essential Medium (i.e., EMEM) containing 10% FBS, L-glutamine, 1 mM sodium pyruvate, 0.1 mM non-essential amino acids, 1.5 g/l sodium bicarbonate, and 50 μg/ml gentamycin sulphate.
as §2, §3, §4

A498 renal = assay: Sulphorodamine B test at single concentration, A498; assay type: cell-based; conditions: Homo sapiens, 500 nM, 72 h
Method: as §1, §2, §3, §4

HCT116 colon = assay: Sulphorodamine B test at single concentration, HCT116; assay type: cell-based; conditions: Homo sapiens, HCT-116; 500 nM, 72 h
Method: as §1
HCT116 cells were cultured in McCoy's medium containing 10% FBS, L-glutamine, and 50 μg/ml gentamycin sulfate.
as §2, §3, §4

MeWo melanoma = assay: Sulphorodamine B test at single concentration, MeWo; assay type: cell-based; conditions: Homo sapiens, 500 nM, 72 h
Method: as §1, §5, §2, §3, §4

MiaPaCa2 pancreas = assay: Sulphorodamine B test at single concentration, MiaPaCa2; assay type: cell-based; conditions: Homo sapiens, MIA PaCa-2; 500 nM, 72 h
Method: as §1
MiaPaCa2 cells were cultured in DMEM medium containing 10% FBS, L-glutamine, and 50 μg/ml gentamycin sulfate.
as §2, §3, §4

HeLa cervix uteri = assay: Sulphorodamine B test at single concentration, HeLa; assay type: cell-based; conditions: Homo sapiens, 500 nM, 72 h
Method: as §1, §2, §3, §4

[3] = system: NB4 promyelocytic leukemia; assay: Sulphorodamine B test at single concentration, NB4; assay type: cell-based; conditions: 500 nM, 72 h, suspension cells
Method: as §1, §2, §3, §4

IC50 (Hsp90) [nM] | Compound | IC50 [1] [nM] | inhibition at 0.5 µM (A431 epidermoid) [%] | inhibition at 0.5 µM (A2780 ovarian) [%] | inhibition at 0.5 µM [2] [%] | inhibition at 0.5 µM (U87MG glioblastoma) [%] | inhibition at 0.5 µM (A498 renal) [%] | inhibition at 0.5 µM (HCT116 colon) [%] | inhibition at 0.5 µM (MeWo melanoma) [%] | inhibition at 0.5 µM (MiaPaCa2 pancreas) [%] | inhibition at 0.5 µM (HeLa cervix uteri) [%] | inhibition at 0.5 µM [3] [%] | cytotoxic activity against NCI-H460 NSCLC (in words) [1]
50 to 100 | CC(C)c1cc(-n2nnc(C(=O)NC3CCCCC3)c2-c2ccc(CN3CCOCC3)cc2)c(O)cc1O [Example 29, 1-(2,4-dihydroxy-5-isopropyl-phenyl)-5-(4-morpholin-4-ylmethyl-phenyl)-1H-[1,2,3]triazole-4-carboxylic acid cyclohexylamide] | < 50 | ≥ 50 | ≥ 50 | ≥ 50 | ≥ 50 | ≥ 50 | ≥ 50 | ≥ 50 | ≥ 50 | ≥ 50 | ≥ 50 | –
> 500 | CCOC(=O)c1nnn(-c2cc(Cl)c(O)cc2O)c1-c1ccc(F)cc1 [Example 32, 1-(5-chloro-2,4-dihydroxy-phenyl)-5-(4-fluoro-phenyl)-1H-[1,2,3]triazole-4-carboxylic acid ethyl ester, reference compound] | > 1000 | < 30 | < 30 | < 30 | < 30 | < 30 | < 30 | < 30 | < 30 | < 30 | 30 to 50 | totally deprived of any interesting biological activity
> 500 | Oc1cc(O)c(-n2nncc2-c2ccc(F)cc2)cc1Cl [Example 33, 4-chloro-6-[5-(4-fluoro-phenyl)-[1,2,3]triazol-1-yl]-benzene-1,3-diol, reference compound] | > 1000 | < 30 | < 30 | < 30 | < 30 | < 30 | < 30 | < 30 | < 30 | < 30 | < 30 | totally deprived of any interesting biological activity

— US9302998B2, “Aryl triazole compounds with antitumoural activity” (SIGMA-TAU RESEARCH SWITZERLAND S.A., priority 2010, dated 2016)
